According to patent US20240285497A1, “METHOD FOR EVALUATING AN ABILITY OF A TEST SAMPLE TO TRIGGER A FOREIGN BODY REACTION IN THE SKIN, A METHOD FOR SCREENING A SUBSTANCE HAVING AN ABILITY TO INHIBIT A FOREIGN BODY REACTION IN THE SKIN, AND AN AGENT FOR INHIBITING A FOREIGN BODY REACTION IN THE SKIN” (priority 2021, published 2024):
Marks after values point to notes of the source that are not given here.

Columns and labels:
[1] = test system: human liver cancer-derived cell line HepG2 cells; conditions: cited from earlier work
artemin mRNA = test: Artemin mRNA expression in HaCaT cells contacted with FICZ, quantitative PCR; assay type: cell-based, human; conditions: 24 hours; for expression level of artemin mRNA compared to cells without FICZ: no Fraglide-1
Procedure: First, HaCaT cells (CLI; Catalogue No.: 300493) were suspended in a DMEM medium at the density of 1×10^5 cell/mL, and 100 μL of the thus obtained suspension was added to each well of white 96 well plates (Thermo Fisher Scientific, MA, U.S.A.; Catalogue No.: 136102) so that the number of the cells in each well was 10,000 cells/well. In accordance with a conventional method, the cells were incubated at 37° C. for 24 hours in the presence of 5% CO2. Thereafter, the DMEM medium was removed, and 100 μL of a new DMEM medium containing FICZ at a predetermined concentration (i.e., 5 nM, 50 nM, 500 nM, and 5,000 nM) was added, followed by further incubation for 24 hours at 37° C. and 5% CO2. Meanwhile, negative controls were prepared by adding 100 μL of a DMEM medium containing no FICZ instead of the DMEM medium containing FICZ, which were also incubated for 24 hours at 37° C. and 5% CO2.
After the above-described incubation for 24 hours, total RNA was extracted and cDNA was prepared using a PCR kit “SuperPrep II Cell Lysis & RT Kit for qPCR” (Catalogue No.: SCQ-401) manufactured by Toyobo Co., Ltd. (Osaka, Japan) in accordance with a method described in the manual attached to the kit. Briefly, after the above-described incubation for 24 hours, cell culture medium was removed from each well and the cells were washed with PBS (Phosphate-buffered saline). Thereafter, each well was added with 10 μL of a lysis reagent, which was prepared by mixing 58.7 μL of “Lysis solution”, 0.3 μL of “gDNA Remover” and 1 μL of “RNase Inhibitor” attached to the above PCR kit. The cell culture plate was shaken for about 30 seconds, and allowed to stand at room temperature for 5 minutes, to obtain a cell lysate containing total RNA that can be used as a template for reverse transcription reaction. Herein, “Lysis Solution” was a cell lysis agent to lyse cells; “gDNA remover” was a reagent containing DNase I that degrades genome DNA; and “RNase Inhibitor” was a reagent to inhibit degradation of RNA by cellular components such as RNase, etc.
Next, cDNA was synthesized from the extracted RNA by reverse transcription. Firstly, a master mix for reverse transcription reaction was prepared by mixing 8 μL of “5×RT Master Mix” and 24 μL of “Nuclease-free water”, which were attached to the above PCR kit “SuperPrep II Cell Lysis & RT Kit for qPCR” manufactured by Toyobo Co., Ltd. (Osaka, Japan). Preparation of the master mix for reverse transcription reaction was carried out on ice. In a PCR tube, 32 μL of the obtained master mix was dispensed and then 8 μL of the above cell lysate present in each well was added to make a total volume 40 μL, which was used for the following reverse transcription reaction. The reverse transcription reaction was carried out under the conditions of 37° C. for 15 mins, 50° C. for 5 mins, and 98° C. for 5 mins. The thus obtained cDNA solution was added with 80 μL of sterile water and then frozen at −20° C. for storage.
Quantitative PCR was carried out by using THUNDERBIRD Next SYBR qPCR Mix (Toyobo Co., Ltd., Osaka, Japan; Catalogue No. QPX-201) and StepOne Real-Time PCR System (Thermo Fisher Scientific, MA, USA). […] The reaction solution was used for quantitative PCR. Based on Ct (cycle threshold) value obtained by quantitative PCR, an amount of mRNA of each target gene was obtained. […]

[2] = test system: TIMP-1 (Tissue Inhibitor of Matrix Metalloprotease-1) mRNA; test: TIMP-1 mRNA expression in HaCaT cells, quantitative PCR; assay type: cell-based, human; conditions: 100 μM, 24 hours
Procedure: Specifically, the mRNA expression of TIMP-1 in the HaCaT cells treated with Fraglide-1 was evaluated by performing quantitative PCR using cDNA obtained in Experiment 4-1. The procedure of quantitative PCR was the same as described in Experiment 4-1 except that the primers shown in below Table 5 were used.
(§1) In FIG. 14, the results obtained for each sample were shown in relative values normalized by setting the expression level of TIMP-1 in the HaCaT cells incubated for 24 hours in DMEM medium not containing Fraglide-1 (i.e., the non-treated HaCaT cells) as 1. The results shown in FIG. 14 are the mean of values obtained from three independent experiments, and the error bars represent standard deviation (SD).
On the other hand, as comparison, the similar evaluation was performed for retinoic acid and nicotinamide, which are known as active ingredients of anti-wrinkle agents, using cDNA obtained in Experiment 4-2. The procedure for quantitative PCR was the same as already described in Experiment 3-1, except that the primers shown in Table 5 were used.
as §1, with “15,” for “14,”, “either retinoic acid and nicotinic acid amide” for “Fraglide-1”, “15” for “14”

Molecule: 6-formylindolo[3,2-b] carbazole [FICZ]
- Literature Value Maximum Effective concentration Max. Induction [1]: 1** μM
- expression level of artemin mRNA compared to cells without FICZ (artemin mRNA; HaCaT cells, 500 nM FICZ): about 3.0 fold
- expression level of artemin mRNA compared to cells without FICZ (artemin mRNA; HaCaT cells, 5,000 nM FICZ): ~3.7 fold
- concentration necessary to observe a significant increase in the expression level of artemin mRNA (artemin mRNA; HaCaT cells): at least 500 nM
- change in expression level of artemin mRNA (artemin mRNA; HaCaT cells, FICZ 50 nM or lower): no change was observed
- expression level of artemin mRNA, dependence on concentration (artemin mRNA; HaCaT cells, FICZ 5-5,000 nM): increased along with the concentration of FICZ

Molecule: O=C1C=C(c2ccccc2)C(O)O1 (centres unmarked) [Fraglide-1, 5-hydroxy-4-phenyl-2(5H)butenolide]
- expression level of TIMP-1 compared to non-treated HaCaT cells [2]: about 4 fold
- expression level of TIMP-1 mRNA vs non-treated HaCaT cells (in words) ([2]; Fraglide-1 1 μM, 10 μM, retinoic acid / nicotinic acid amide at predetermined concentrations): concentration-dependent increase
